Reference: patent US5266698A, “Certain aryl and cycloalkyl fused imidazopyrazinediones; a new class of GABA brain receptor ligands” (Neurogen Corporation, priority 1992, dated 1993)

Tests used:
[1] = tested on: GABA receptor; conditions: stereoisomers of bicuculline; Tallman et al., 1978, Nature, 274: 383-85; cited from earlier work
[2] = target: GABAa receptor (benzodiazepine receptor); assay: GABAa receptor binding assay ([3H]-Flumazenil (RO15-1788) displacement, rat cortical tissue); conditions: rat cortical tissue homogenate; 0.5 nM 3H-RO15-1788; 30 min at 4° C., pH 7.4; nonspecific: 1.0 mM diazepam
Experimental: The pharmaceutical utility of compounds of this invention are indicated by the following assay for GABAa receptor activity.
Assays are carried out as described in Thomas and Tallman (J. Bio. Chem. 156: 9838-9842, J. Neurosci. 3:433-440, 1983). Rat cortical tissue is dissected and homogenized in 25 volumes (w/v) of 0.05M Tris HCl buffer (pH 7.4 at 4° C.). The tissue homogenate is centrifuged in the cold (4°) at 20,000×g for 20'. The supernatant is decanted and the pellet is rehomogenized in the same volume of buffer and again centrifuged at 20,000×g. The supernatant is decanted and the pellet is frozen at -20° C. overnight. The pellet is then thawed and rehomogenized in 25 volume (original wt/vol) of buffer and the procedure i carried out twice. The pellet is finally resuspended in 50 volumes (w/vol of 0.05M Tris HCl buffer (pH 7.4 at […]).
Incubations contain […] of tissue homogenate, […] of radioligand 0.5 nM (^3 H-RO15-1788 [^3 H-Flumazenil] specific activity 80 Ci/mmol), drug or blocker and buffer to a total volume of […]. Incubations are carried for 30 min at 4° C. then are rapidly filtered through GFB filters to separate free and bound ligand. Filters are washed twice and fresh 0.05M Tris HCl buffer (pH 7.4 at 4° C.) and counted in a liquid scintillation counter. 1.0 mM diazepam is added to some tubes to determine nonspecific binding. Data are collected in triplicate determinations, averaged and % inhibition of total specific binding is calculated. Total Specific Binding=Total-Nonspecific. In some cases, the amounts of unlabeled drugs is varied and total displacement curves of binding are carried out. Data are converted to a form for the calculation of IC50 and Hill Coefficient (nH).

SMILES	Block of enhancement of benzodiazepine binding by GABA agonists [1]	IC50 [2]
CN1CCc2cc3c(cc2C1C1OC(=O)c2c1ccc1c2OCO1)OCO3 (single isomer, unassigned; (+)) [(+) bicuculline]	blocked	
CCOc1ccc(-n2c(=O)c3c[nH]c4cccnc4n-3c2=O)cc1 [Compound 8, 2-(4-Ethoxyphenyl)-imidazo[1,5,a]pyrido[3,2-e]pyrazine-2,3(2H,5H)-dione]		20 nM
O=c1c2c[nH]c3cccnc3n-2c(=O)n1-c1ccccc1 [Compound 1, 2-Phenyl-imidazo[1,5,a]pyrido[3,2-e]pyrazine-1,3(2H,5H)-dione]		10 nM
COc1ccc(-n2c(=O)c3c[nH]c4cccnc4n-3c2=O)cc1 [Compound 5, 2-(4-Methoxyphenyl)-imidazo[1,5,a]pyrido[3,2-e]pyrazine-2,3(2H,5H)-dione]		9 nM
CN1CCc2cc3c(cc2C1C1OC(=O)c2c1ccc1c2OCO1)OCO3 (single isomer, unassigned; (-)) [(-) bicuculline]	much less active	
